Reference: US20150038527A1, “FUROPYRIDINE DERIVATIVES” (Merck Patent GmbH, priority 2012, published 2015)

Target: T1, SYK (Homo sapiens, UniProt P43405)
T1 construct: 2.5 nM SYK, 400 nM Biotin-Aha-Aha-KEDPDYEWPSAKK and 10 μM ATP
Assay: SYK Flash Plate Assay (enzyme assay)
Assay type: biochemical

SMILES	IC50 [µM]
COc1cc(-c2cc3nccc(-c4ccc5c(c4)ncn5CCN)c3o2)cc(OC)c1OC [Compound A3, 2-{5-[2-(3,4,5-Trimethoxy-phenyl)-furo[3,2-b]pyridin-7-yl]-benzoimidazol-1-yl}-ethylamine]	0.3 to 3
COc1cc(-c2cc3nccc(NC(=O)NC4CCCCC4N)c3o2)cc(OC)c1OC (stereo not shown) [Compound A75, 1-(2-amino-cyclohexyl)-3-[2-(3,4,5-trimethoxy-phenyl)-furo[3,2-b]pyridin-7-yl]-urea]	3 to 50
COc1cc(-c2cc3nccc(-c4cccc(C(=O)N[C@@H]5C[C@@H]5N)c4)c3o2)cc(OC)c1OC [Compound A64, N-((1R,2S)-2-amino-cyclopropyl)-3-[2-(3,4,5-trimethoxy-phenyl)-furo[3,2-b]pyridin-7-yl]-benzamide]	0.3 to 3
CCc1ccc(OC)c(-c2cc3nccc(-c4cccc(C(=O)N[C@@H]5CCCC[C@@H]5N)c4)c3o2)c1 [Compound A43, N-((1R,2S)-2-amino-cyclohexyl)-3-[2-(5-ethyl-2-methoxy-phenyl)-furo[3,2-b]pyridin-7-yl]-benzamide]	0.3 to 3
COc1cc(-c2cc3nccc(N=[N+]=[N-])c3o2)cc(OC)c1OC [Compound A86, 7-azido-2-(3,4,5-trimethoxy-phenyl)-furo[3,2-b]pyridine]	3 to 50
CCc1ccc(OC)cc1-c1cc2nccc(-c3cccc(C(=O)N[C@@H]4CCCC[C@@H]4N)c3)c2o1 [Compound A42, N-((1R,2S)-2-amino-cyclohexyl)-3-[2-(2-ethyl-5-methoxy-phenyl)-furo[3,2-b]pyridin-7-yl]-benzamide]	3 to 50
CCc1ccc(OC)cc1-c1cc2nccc(-c3ccc4[nH]cnc4c3)c2o1 [Compound A36, 7-(1H-benzoimidazol-5-yl)-2-(2-ethyl-5-methoxy-phenyl)-furo[3,2-b]pyridine]	3 to 50
COc1cc(-c2cc3nccc(-c4cc(C(=O)N[C@@H]5CCCC[C@@H]5N)ccc4F)c3o2)cc(OC)c1OC [Compound A48, N-((1R,2S)-2-mino-cyclohexyl)-4-fluoro-3-[2-(3,4,5-trimethoxy-phenyl)furo[3,2-b]pyridin-7-yl]-benzamide]	0.3 to 3
COC[C@H](N)CNC(=O)c1cccc(-c2ccnc3cc(-c4cc(OC)c(OC)c(OC)c4)oc23)c1 [Compound A5, N—((R)-2-amino-3-methoxy-propyl)-3-[2-(3,4,5-trimethoxy-phenyl)-furo[3,2-b]pyridin-7-yl]-benzamide]	0.3 to 3
COc1ccc(C(N)=O)cc1-c1cc2nccc(-c3cc([C@@H](C)N)ccc3OC)c2o1 [Compound A1, 3-{7-[5-((R)-1-Amino-ethyl)-2-methoxy-phenyl]-furo[3,2-b]pyridin-2-yl}-4-methoxy-benzamide]	0.1 to 0.3
COc1cc(-c2cc3nccc(C(N)=O)c3o2)cc(OC)c1OC [Compound A98, 2-(3,4,5-trimethoxy-phenyl)-furo[3,2-b]pyridine-7-carboxylic acid amide]	0.3 to 3
COc1cc(-c2cc3nccc(-c4cccc(C(=O)N[C@@H]5CCC[C@@H]5O)c4)c3o2)cc(OC)c1OC [Compound A22, N-((1R,2S)-2-hydroxy-cyclopentyl)-3-[2-(3,4,5-trimethoxy-phenyl)-furo[3,2-b]pyridin-7-yl]-benzamide]	3 to 50
COc1cc(-c2cc3nccc(-c4cc(C)cc(C(=O)NCCCN)c4)c3o2)cc(OC)c1OC [Compound A57, N-(3-amino-propyl)-3-methyl-5-[2-(3,4,5-trimethoxy-phenyl)-furo[3,2-b]pyridin-7-yl]-benzamide]	0.3 to 3
COc1ccc(C(N)=O)cc1-c1cc2nccc(-c3c(OC)cccc3OC)c2o1 [Compound A62, 3-[7-(2,6-dimethoxy-phenyl)-furo[3,2-b]pyridin-2-yl]-4-methoxy-benzamide]	0.3 to 3
COc1cc(-c2cc3nccc(-c4cccc(C(=O)NCC(O)CO)c4)c3o2)cc(OC)c1OC (stereo not shown) [Compound A20, N-(2,3-dihydroxy-propyl)-3-[2-(3,4,5-trimethoxy-phenyl)-furo[3,2-b]pyridin-7-yl]-benzamide]	3 to 50
COc1cc(-c2cc3nccc(-c4cnc[nH]4)c3o2)cc(OC)c1OC [Compound A91, 7-(3H-imidazol-4-yl)-2-(3,4,5-trimethoxy-phenyl)-furo[3,2-b]pyridine]	0.1 to 0.3
COc1ccc(OCCN)cc1-c1cc2nccc(-c3cccc(C(=O)N[C@@H]4CCCC[C@@H]4N)c3)c2o1 [Compound A51, N-((1R,2S)-2-amino-cyclohexyl)-3-{2-[5-(2-amino-ethoxy)-2-methoxy-phenyl]-furo[3,2-b]pyridin-7-yl}-benzamide]	0.3 to 3
CCc1ccc(OC)c(-c2cc3nccc(-c4ccc5[nH]cnc5c4)c3o2)c1 [Compound A41, 7-(1H-benzoimidazol-5-yl)-2-(5-ethyl-2-methoxy-phenyl)-furo[3,2-b]pyridine]	0.3 to 3
COc1ccc(C(N)=O)cc1-c1cc2nccc(-c3cccc(C(=O)N[C@@H]4CCCC[C@@H]4N)c3)c2o1 [Compound A46, 3-{7-[3-((1R,2S)-2-amino-cyclohexylcarbamoyl)-phenyl]-furo[3,2-b]pyridin-2-yl}-4-methoxy-benzamide]	0.3 to 3
COc1cc(-c2cc3ncc(-c4cn[nH]c4)cc3o2)cc(OC)c1OC [Compound A59, 6-(1H-pyrazol-4-yl)-2-(3,4,5-trimethoxy-phenyl)-furo[3,2-b]pyridine]	3 to 50
COc1cc(-c2cc3nccc(-c4cc5cn[nH]c5cc4C)c3o2)cc(OC)c1OC [Compound A13, 7-(6-methyl-1H-indazol-5-yl)-2-(3,4,5-trimethoxy-phenyl)-furo[3,2-b]pyridine]	0.3 to 3
CCc1ccc(OC)c(-c2cc3nccc(-c4cc(CC)ccc4OC)c3o2)c1 [Compound A30, 2,7-bis-(5-ethyl-2-methoxy-phenyl)-furo[3,2-b]pyridine]	3 to 50
CCn1cc(-c2ccnc3cc(-c4cc(C(N)=O)ccc4OC)oc23)cn1 [Compound A63, 3-[7-(1-ethyl-1H-pyrazol-4-yl)-furo[3,2-b]pyridin-2-yl]-4-methoxy-benzamide]	0.3 to 3
COc1ccc([C@@H](C)N)cc1-c1ccnc2cc(-c3cc(OC)c(OC)c(OC)c3)oc12 [Compound A100, (R)-1-{4-methoxy-3-[2-(3,4,5-trimethoxy-phenyl)-furo[3,2-b]pyridin-7-yl]-phenyl}-ethylamine]	0.3 to 3
COc1cc(-c2cc3nccc(-c4cc(C)cc(C(=O)NCCN)c4)c3o2)cc(OC)c1OC [Compound A56, N-(2-amino-ethyl)-3-methyl-5-[2-(3,4,5-trimethoxy-phenyl)-furo[3,2-b]pyridin-7-yl]-benzamide]	0.3 to 3
COc1cc(-c2cc3nccc(-c4cccc(C(=O)NC(C)(C)CO)c4)c3o2)cc(OC)c1OC [Compound A40, N-(2-hydroxy-1,1-dimethyl-ethyl)-3-[2-(3,4,5-trimethoxy-phenyl)-furo[3,2-b]pyridin-7-yl]-benzamide]	0.3 to 3
COc1ccc(C(N)=O)cc1-c1cc2nccc(-c3ccnc(N[C@@H]4CCCC[C@@H]4N)c3)c2o1 [Compound A97, 3-{7-[2-((1R,2S)-2-amino-cyclohexylamino)-pyridin-4-yl]-furo[3,2-b]pyridin-2-yl}-4-methoxy-benzamide]	< 0.1
COc1cc(-c2cc3ncc(F)c(-c4cccc(C(=O)N[C@@H]5CCCC[C@@H]5N)c4)c3o2)cc(OC)c1OC [Compound A47, N-((1R,2S)-2-amino-cyclohexyl)-3-[6-fluoro-2-(3,4,5-trimethoxy-phenyl)furo[3,2-b]pyridin-7-yl]-benzamide]	0.3 to 3
